Laboratory results from US20110136898A1, “TREATMENT OF RETINAL DEGENERATION” (UNIVERSITY COLLEGE CORK, NATIONAL UNIVERSITY OF IRELAND, …, priority 2008, published 2011).
“Also recorded” adds a separate entry of the source.

Legend:
photoreceptor cells [1] = assay: Retinal explant culture, SNP induced apoptosis detected by TUNEL; type: cell-based, C57BL/6 mice; conditions: for Protection of photoreceptor cells from SNP induced apoptosis: retinal explants, TUNEL; for Protection of photoreceptor cells from SNP induced apoptosis / Protection of photoreceptor cells from SNP induced apoptosis at 25 μM: 300 μM SNP 24 h, 1 hour pre-treatment
[2] = Lipophilicity of BP derivatives; type: physicochemical; conditions: FIG. 4
Protocol: (§1) FIG. 4: Is a histogram of % protection afforded by a 25 μM concentration of each BP derivative BP1 to BP6 in photoreceptor cells as a function of the lipophilicity of each derivative. (P is a logarithmic value that indicates the lipophilicity of a compound).

photoreceptor cells [3] = assay: SNP challenge in photoreceptor cells, protection by BP derivatives; type: cell-based
Protocol: FIG. 2: Is a histogram of results showing the effectiveness of a 25 μM concentration of each of the BP derivatives BP-1 to BP6 against increasing concentrations of SNP in photoreceptor cells. Error bars are +/−standard deviation-SD.
as §1

ganglion cells = assay: NMDA-induced excitotoxicity, acute model of Glaucoma; type: in vivo, balb/c mice
Protocol: In this model intravitreal injection of 40 mM NMDA results in the progressive loss of ganglion cells from the ganglion cell layer (GCL), accompanied by a thinning of the inner plexiform layer (IPL) over time.
By 48 and 72 hours post excitotoxicity the eventual loss of cells of the ONL is evident.
FIG. 13 is a histogram of the data from FIG. 12.
(§2) Apoptosis detection by Terminal deoxynucleotidyl transferase-mediated biotinylated UTP nick end labeling (TUNEL): Retinal explants were fixed in 10% neutral buffered formalin overnight at 4° C., followed by cryoprotection in 25% sucrose overnight at 4° C. Frozen sections (7 μm) were incubated with terminal deoxynucleotidyl transferase (MSC, Dublin, Republic of Ireland) and fluorescein-12-dUTP (Roche, Lewes, UK) according to manufacturers' instructions at 37° C. for 1 h. Sections were mounted and viewed under a fluorescence microscope (Leica DM LB2; Leica, Nussloch, Germany) using an FITC filter.
Hematoxylin staining: Eyes were fixed in 10% neutral buffered formalin overnight at 4° C., followed by cryoprotection in 25% sucrose overnight at 4° C. Frozen sections (7 μm) were stained in Hematoxylin (Sigma, Dublin, Ireland) for 10 seconds followed by a 15 minute water wash and 2-3 dips in acid alcohol. Following further washing, sections were placed in a 2% sodium bicarbonate (Sigma, Dublin, Ireland) solution for 30 seconds then dehydrated through an alcohol gradient. Sections were cleared in Histoclear (Sigma, Dublin, Ireland) for 5 minutes then mouted in DPX (BDH, VWR International Ltd., Poole, England) and viewed under a light microscope (Leica DM LB2; Leica, Nussloch, Germany).
Intravitreal Injections: Adult balb/c mice were anaesthetised using an intraperitoneal injection of ketamine hydrochloride 35-50 mg/kg (Pharmacia, Corby, Northamptonshire, UK) and xylazine hydrochloride 5-10 mg/kg (Chanelle Pharmaceuticals, Loughrea, Co. Galway, Ireland), and animals were placed in the pronate position. […]

[4] = Stability of BP derivatives; type: physicochemical
photoreceptor cells [5] = assay: Light damage model in vivo, TUNEL; design: species or system albino balb/c mice; conditions: for Protection from light induced retinal damage (apoptosis of photoreceptors): 200 mg/kg IP, 1 hour pre-treatment, single injection
Protocol: FIG. 7: In this figure the study was extended from ex vivo cultures to the light damage model in vivo. In this acute model of retinal disease albino balb/c mice are exposed to excessive white light causing the photoreceptor cells to die by apoptosis. […] The protection extends to 48 hours with only a single injection of BP3.
FIG. 8 is a histogram of the results from FIG. 7. TUNEL positive cells in three independent retinae were counted. Counts were performed on the central 40× field of the outer nuclear layer (ONL) and graphed with error bars (+/−standard deviation-SD).
as §2
Light damage model: Balb/c mice were dark adapted for 18 h prior to exposure to constant light. Mice were injected intraperitoneally with the Active 1 hour prior to light damage. Immediately prior to light exposure their pupils were dilated with 0.5% cyclopentolate under red light. Retinal light damage was induced by exposure to 2 h of cool white fluorescent light at an illumination of 5000 lux. Following exposure to constant light, animals were placed in the dark for 24 h then killed immediately by cervical dislocation. TUNEL staining was performed as described above.

photoreceptor cells [6] = assay: rd10 chronic model of retinal degeneration; type: in vivo, rd10 mouse
Description: In this model photoreceptor cells degenerate more slowly than the light model, over weeks rather than hours to days. Cell death is evident from postnatal day 18 (P18) and by P25 a significant loss of photoreceptor cell layers is observed. […] In this model, the central and peripheral retina degenerate at different rates. The loss of photoreceptors is greater in the central retina than the periphery between P18 and P25.
FIG. 10: The ONL comprises two types of cell; rod photoreceptors and cone photoreceptors. […] Rhodopsin is a protein specifically found in the outer segments (OS) of rod photoreceptors. […] Peanut agglutinin (PNA) is a lectin which binds to carbohydrates found in the outer membrane of cone photoreceptors but which are absent from rods.
Frozen sections (7 μm) were blocked with 0.1% bovine serum albumin (BSA) in 0.1% tween/PBS for 1 hour at room temperature. Sections were incubated with anti-rhodopsin antibody (LAB VISION Corporation, Fremont, Calif., USA) overnight at 4° C. Sections were washed and incubated with FITC conjugated secondary mouse antibody (Dako, Glostrup, Denmark) for 1 hour at room temperature. Following further washes, sections were mounted and viewed under a fluorescence microscope (Leica DM LB2; Leica, Nussloch, Germany) using a FITC filter.
Frozen sections (7 μm) were blocked with 0.1% bovine serum albumin (BSA) in 0.1% tween/PBS for 30 minutes at room temperature. Sections were incubated with rhodamine conjugated PNA (Invitrogen, Dun Laoghaire, Ireland) for 20 minutes at room temperature as per manufacturers' instructions. Sections were mounted and viewed under a fluorescence microscope (Leica DM LB2; Leica, Nussloch, Germany) using a TRITC filter.
Frozen sections (7 μm) were stained in Hematoxylin (Sigma, Dublin, Ireland) for 10 seconds followed by a 15 minute water wash and 2-3 dips in acid alcohol. Following further washing, sections were placed in a 2% sodium bicarbonate (Sigma, Dublin, Ireland) solution for 30 seconds then dehydrated through an alcohol gradient. Sections were cleared in Histoclear (Sigma, Dublin, Ireland) for 5 minutes then mouted in DPX (BDH, VWR International Ltd., Poole, England) and viewed under a light microscope (Leica DM LB2; Leica, Nussloch, Germany).
It is a better model of the slow progression of typical human autosomal recessive RP than the acute light model as photoreceptor cells are lost over a period of weeks rather than days. Loss of photoreceptors in the rd10 mouse begins at approximately 2 weeks of age, with the peak of photoreceptor death occurring at postnatal day (P) 25.

[7] = 200 mg/kg 1 hour prior to 40 mM NMDA injection, 48 and 72 hours post insult

Structure (SMILES): C#CC1(O)CC[C@H]2[C@@H]3CCC4=CC(=O)CC[C@@H]4[C@H]3CC[C@@]21CC (mixture of isomers) [norgestrel, reference compound]
- Protection of photoreceptor cells from SNP induced apoptosis (photoreceptor cells [1]): protected

Structure (SMILES): COc1cc2c(cc1OC(C)=O)CCC(C)(C)O2 [BP1]
- Lipophilicity (P), rank order [2]: BP1<BP2<BP3=BP5=BP6<BP4

Structure (SMILES): COc1cc2c(cc1OC(=O)C(C)(C)C)CCC(C)(C)O2 [BP2]
- Lipophilicity (P), rank order [2]: BP1<BP2<BP3=BP5=BP6<BP4

Structure (SMILES): CCCCC(C)C(=O)Oc1cc2c(cc1OC)OC(C)(C)CC2 (centres unmarked) [BP3]
- Inhibition of apoptosis in retinal cells (photoreceptor cells [3]): inhibiting apoptosis
- Lipophilicity (P), rank order [2]: BP1<BP2<BP3=BP5=BP6<BP4
- Ganglion cell loss from the GCL (ganglion cells; [7]): significantly attenuates
- IPL thinning (ganglion cells; [7]): significantly attenuates
- Protection from NMDA-induced cell death (TUNEL positive cells, all retinal layers) (ganglion cells; 200 mg/kg I.P. 1 hour prior to NMDA injection, 4, 24, 48 and 72 hours): significantly protects retinal cells in all layers at all time points examined; also recorded: significant protection
- Stability of the compound [4]: far more stable than BP4
- Protection from light induced retinal damage (apoptosis of photoreceptors) (photoreceptor cells [5]): protects from the retinal damage observed
- Protection from light induced retinal damage (apoptosis of photoreceptors) (photoreceptor cells [5]; listed as BP-3): protected
- Protection from light induced cell death in the central retina (TUNEL positive cells, ONL) (photoreceptor cells [5]; at 24, 48 and 72 hours, 200 mg/kg, FIG. 8): approx 40%
- Protection at 72 hours post light damage (photoreceptor cells [5]; second dose of 200 mg/kg at 24 hours post light damage): significant protection
- Time to which protection extends (photoreceptor cells [5]; single injection of 200 mg/kg, post light damage): 48 h
- Cone cells in the ONL (PNA staining) (photoreceptor cells [6]; alternate days from P18 to P25): more cone cells
- Rhodopsin positive cells (rods) in the ONL compared to vehicle (photoreceptor cells [6]; alternate days from P18 to P25, immunofluorescent staining): more rhodopsin positive cells remain
- Protection from photoreceptor cell death in the ONL (photoreceptor cells [6]; injected daily with 200 mg/kg, P18 to P25, 200 mg/kg): protection from photoreceptor cell death in the ONL; also recorded: areas of the retina are protected
- Protection of retinal areas, alternate-day injection versus daily injection (photoreceptor cells [6]; injection on alternate days, all retinal areas): same level of protection as a daily injection regimen
- Protection of photoreceptor cells from SNP induced apoptosis at 25 μM (photoreceptor cells [1]; FIGS. 5 and 6): effective
- Concentration at which BP3 is equally as effective, times lower than BP (photoreceptor cells [1]; SNP induced apoptosis, FIGS. 5 and 6): 10 times
- Protection of photoreceptor cells from SNP induced apoptosis (photoreceptor cells [1]): protect photoreceptor cells from SNP induced apoptosis
- Protection of photoreceptor cells from SNP induced apoptosis (photoreceptor cells [1]; listed as BP-3): inhibiting apoptosis; also recorded: better protection

Structure (SMILES): COc1cc2c(cc1OC(=O)c1ccccc1)CCC(C)(C)O2 [BP5]
- Lipophilicity (P), rank order [2]: BP1<BP2<BP3=BP5=BP6<BP4

Structure (SMILES): COc1cc2c(cc1OC(=O)c1ccccc1F)CCC(C)(C)O2 [BP6]
- Lipophilicity (P), rank order [2]: BP1<BP2<BP3=BP5=BP6<BP4

Structure (SMILES): COc1cc2c(cc1O)CCC(C)(C)O2 [BP, 3,4-dihydro-6-hydroxy-7-methoxy-2,2-dimethyl-1(2H)-benzopyran]
- Protection of photoreceptor cells from SNP induced apoptosis at 25 μM (photoreceptor cells [1]; FIGS. 5 and 6): effective
- Protection of photoreceptor cells from SNP induced apoptosis (photoreceptor cells [1]): protect photoreceptor cells from SNP induced apoptosis
